# Source: ChEMBL document CHEMBL5104139, “A critical update on the strategies towards small molecule inhibitors targeting Serine/arginine-rich (SR) proteins and Serine/arginine-rich proteins related kinases in alternative splicing” (Bioorg Med Chem, 2022)
# Assays:
# [1] = target: T1, Serine/arginine-rich splicing factor 6 (Homo sapiens, UniProt Q13247); experiment: Inhibition of SRSF6 (unknown origin)
# T1 sequence (Q13247 whole entry): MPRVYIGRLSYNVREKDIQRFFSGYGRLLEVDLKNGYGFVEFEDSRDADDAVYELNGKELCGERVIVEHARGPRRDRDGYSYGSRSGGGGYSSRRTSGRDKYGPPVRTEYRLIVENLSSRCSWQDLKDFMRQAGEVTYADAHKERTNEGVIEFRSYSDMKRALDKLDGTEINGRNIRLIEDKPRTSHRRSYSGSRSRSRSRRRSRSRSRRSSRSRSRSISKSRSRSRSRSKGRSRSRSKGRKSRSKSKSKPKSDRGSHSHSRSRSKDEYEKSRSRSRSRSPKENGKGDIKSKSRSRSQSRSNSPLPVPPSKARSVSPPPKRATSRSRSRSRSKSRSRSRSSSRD
# [2] = target: Cyclin-dependent kinase 5 (Homo sapiens, UniProt Q00535); experiment: Inhibition of CDK5 (unknown origin)
# Cyclin-dependent kinase 5, sequence (Q00535 whole entry): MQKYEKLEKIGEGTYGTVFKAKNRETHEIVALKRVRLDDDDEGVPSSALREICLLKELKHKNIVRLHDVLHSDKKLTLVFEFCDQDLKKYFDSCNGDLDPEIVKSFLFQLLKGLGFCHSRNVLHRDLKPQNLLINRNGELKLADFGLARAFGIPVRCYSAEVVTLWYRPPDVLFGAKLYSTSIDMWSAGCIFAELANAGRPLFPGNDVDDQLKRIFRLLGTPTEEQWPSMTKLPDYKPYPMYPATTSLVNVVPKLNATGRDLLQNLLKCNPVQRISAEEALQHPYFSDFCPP
# [3] = target: Glycogen synthase kinase-3 (Homo sapiens, UniProt P49840+P49841); experiment: Inhibition of GSK3 (unknown origin); type: protein assay
# [4] = target: T2, Dual specificity tyrosine-phosphorylation-regulated kinase 1A (Homo sapiens, UniProt Q13627)
# [5] = target: Dual specificity protein kinase CLK2 (Homo sapiens, UniProt P49760)
# Dual specificity protein kinase CLK2, sequence (P49760 whole entry): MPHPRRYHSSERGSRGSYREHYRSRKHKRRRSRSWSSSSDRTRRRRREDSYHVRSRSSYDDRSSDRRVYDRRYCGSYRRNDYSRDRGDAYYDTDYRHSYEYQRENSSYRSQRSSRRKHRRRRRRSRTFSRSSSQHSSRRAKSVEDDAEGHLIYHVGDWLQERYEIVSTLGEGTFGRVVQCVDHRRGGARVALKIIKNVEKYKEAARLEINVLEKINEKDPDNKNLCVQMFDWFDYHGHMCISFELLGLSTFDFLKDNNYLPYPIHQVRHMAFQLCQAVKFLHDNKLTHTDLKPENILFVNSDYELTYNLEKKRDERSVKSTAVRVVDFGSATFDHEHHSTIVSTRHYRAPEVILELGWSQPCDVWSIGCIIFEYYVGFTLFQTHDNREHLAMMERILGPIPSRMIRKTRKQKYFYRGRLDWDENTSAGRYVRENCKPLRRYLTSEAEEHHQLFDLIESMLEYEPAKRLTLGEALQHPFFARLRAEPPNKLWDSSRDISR
# [6] = target: T2, Dual specificity tyrosine-phosphorylation-regulated kinase 1A; experiment: Inhibition of DYRK1A (unknown origin) at 1 uM relative to control
# SRSF protein kinase 1 = SRSF protein kinase 1 (Homo sapiens, UniProt Q96SB4)
# SRSF protein kinase 1, sequence (Q96SB4 whole entry): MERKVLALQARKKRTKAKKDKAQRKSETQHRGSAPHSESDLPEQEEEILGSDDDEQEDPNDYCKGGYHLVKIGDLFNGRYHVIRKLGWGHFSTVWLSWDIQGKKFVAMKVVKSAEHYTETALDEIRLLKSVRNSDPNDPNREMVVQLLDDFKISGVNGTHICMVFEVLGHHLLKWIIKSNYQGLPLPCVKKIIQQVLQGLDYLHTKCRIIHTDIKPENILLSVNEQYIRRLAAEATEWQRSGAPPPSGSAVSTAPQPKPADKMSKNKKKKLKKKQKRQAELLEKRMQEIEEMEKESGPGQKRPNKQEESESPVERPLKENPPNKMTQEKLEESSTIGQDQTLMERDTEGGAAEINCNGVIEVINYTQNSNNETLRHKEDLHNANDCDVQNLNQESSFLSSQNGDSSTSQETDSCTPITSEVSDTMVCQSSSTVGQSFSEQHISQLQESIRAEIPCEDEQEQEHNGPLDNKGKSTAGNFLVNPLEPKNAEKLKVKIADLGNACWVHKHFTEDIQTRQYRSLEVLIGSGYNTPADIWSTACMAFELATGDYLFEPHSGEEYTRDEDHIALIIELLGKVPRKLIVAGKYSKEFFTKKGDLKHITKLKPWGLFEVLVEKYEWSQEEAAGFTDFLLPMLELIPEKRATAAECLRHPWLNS
# HL-60 = experiment: Cytotoxicity against HL-60 cells; type: functional, cell-based; settings: Homo sapiens
# K562 = experiment: Cytotoxicity against human K562 cells; type: functional, cell-based
# SRSF protein kinase 2 = SRSF protein kinase 2 (Homo sapiens, UniProt P78362)
# SRSF protein kinase 2, sequence (P78362 whole entry): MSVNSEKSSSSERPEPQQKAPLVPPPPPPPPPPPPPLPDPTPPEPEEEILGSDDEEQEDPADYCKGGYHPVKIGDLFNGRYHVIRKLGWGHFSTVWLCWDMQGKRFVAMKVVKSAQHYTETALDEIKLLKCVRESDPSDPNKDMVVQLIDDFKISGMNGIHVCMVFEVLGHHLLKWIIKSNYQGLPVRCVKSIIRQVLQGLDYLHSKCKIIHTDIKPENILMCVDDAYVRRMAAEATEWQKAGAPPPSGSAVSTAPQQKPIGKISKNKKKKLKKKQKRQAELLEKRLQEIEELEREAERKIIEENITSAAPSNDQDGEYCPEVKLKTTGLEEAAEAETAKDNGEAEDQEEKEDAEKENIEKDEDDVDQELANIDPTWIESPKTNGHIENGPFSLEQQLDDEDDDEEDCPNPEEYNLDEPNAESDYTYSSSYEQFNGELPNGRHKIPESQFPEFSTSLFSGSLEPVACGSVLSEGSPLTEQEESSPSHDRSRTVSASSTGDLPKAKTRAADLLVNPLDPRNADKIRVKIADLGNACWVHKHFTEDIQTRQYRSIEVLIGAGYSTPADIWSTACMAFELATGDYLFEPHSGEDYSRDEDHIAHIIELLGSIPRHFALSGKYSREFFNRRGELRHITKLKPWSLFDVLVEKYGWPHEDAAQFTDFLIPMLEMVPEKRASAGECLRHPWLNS
structure (smiles),measurement,setting,value
CCc1cc2c(cc1CC)CC(NC[C@H](O)c1ccc(O)c3[nH]c(=O)ccc13)C2 [INDACATEROL],IC50,[1],19 µM
O=c1oc2cc(O)ccc2c2c1[nH]c1ccc(O)cc12,IC50,[2],720 nM
same,IC50,[3],310 nM
same,IC50,[4],67 nM
C.O=c1oc2cc(O)ccc2c2c1[nH]c1ccccc12,IC50,[2],2700 nM
same,IC50,[3],380 nM
same,IC50,[4],74 nM
O=C(Oc1cc(O)c2c(c1)OC(c1cc(O)c(O)c(O)c1)CC2)c1cc(O)c(O)c(O)c1 (stereo not drawn),IC50,[5],2700 nM
c1cc(-c2ccc3[nH]ncc3c2)ccn1,inhibition,[6],84%
O=C(Nc1cc(C(F)(F)F)ccc1N1CCCCC1)c1ccncc1,IC50,SRSF protein kinase 1,890 nM
COc1cc(/C=C2/C(=N)N3N=C(C(F)(F)F)SC3=NC2=O)ccc1O,IC50,HL-60,44.7 µM
same,IC50,K562,44.7 µM
same,IC50,SRSF protein kinase 2,203 nM
